The record followed here is patent publication US20040063681A1, “Methods for using gold (III) complexes as anti-tumor and anti-HIV agents” (priority 2002, published 2004).

The subject of data set [1] is Human Nasopharyngeal Carcinoma (cisplatin resistance, CNE1). Description: MTT cytotoxicity, CNE1. The data set is classed as cell-based. Particulars: for IC50: MTT, growth inhibition, cisplatin resistant. An excerpt:
(§1) Human promyelocytic leukemia (HL-60), human hepatocellular carcinoma (HepG2), Human cervix epitheloid carcinoma cells (HeLa) and human oral epidermoid carcinoma cells (KB-3-1), were obtained from American Type Culture Collection (ATCC) (Rockville, Md.). […] Cell culture flasks and 96 well microtitre plates were from Nalge Nunc hit. Culture medium, other medium constituents and phosphate buffered saline (PBS) were obtained from Gibco BRL (Rockville, Md.). Cell Proliferation Kit I (MTT) was purchased from Roche (Mannheim, Germany).

The test system of data set [2] is Human Cervix Epitheloid Carcinoma (HeLa). Description: MTT cytotoxicity, HeLa. In kind it is cell-based. Particulars: for IC50: MTT, growth inhibition.
From the text: as §1

Data set [3] relates to Human Promyelocytic Leukemia (HL-60). Description: MTT cytotoxicity, HL-60. In kind it is cell-based. Particulars: growth inhibition. From the text:
(§2) Human promyelocytic leukemia (HL-60), human hepatocellular carcinoma (HepG2), Human cervix epitheloid carcinoma cells (HeLa) and human oral epidermoid carcinoma cells (KB-3-1), were obtained from American Type Culture Collection (ATCC) (Rockville, Md.). The multi-drug-resistant variant KB-V1 cell line was obtained by stepwise selections for vinblastine resistance as described by Shen et al., J. Biol. Chem. 261:7762-7770 (1986)], and was generously provided by Dr Michael Gottesman (NIH, Bethesda, Md.). Human nasopharyngeal carcinoma cells (SUNE1 and its cisplatin resistance variant, CNE1) were derived from poorly differentiated NPC in Chinese patients as described by Gu et al., Chin. J. Cancer 2:270-272 (1983), and were generously provided by Dr S. W. Tsao (The University of Hong Kong, Hong Kong, PRC). Cell culture flasks and 96 well microtitre plates were from Nalge Nunc hit. Culture medium, other medium constituents and phosphate buffered saline (PBS) were obtained from Gibco BRL (Rockville, Md.). Cell Proliferation Kit I (MTT) was purchased from Roche (Mannheim, Germany).
(§3) The anti-cancer activities of the gold(III) porphyrin complexes were evaluated toward some established human cancer cell lines: promyelocytic leukemia (HL-60), hepatocellular carcinoma (HepG2), cervix epitheloid carcinoma (HeLa), epidermoid carcinoma (KB-3-1) and its multi-drug resistant variant (KB-V1), nasopharyngeal carcinoma (SUNE1) and its cisplatin-resistant variant (CNE1). The experiments were carried out by following the MTT procedure (see Mosmann et al., J. Immunol. Methods 65:55-63 (1983). The IC50 values of the gold(III) porphyrin complexes together with that of cisplatin, and KAuCl4 are provided in Table 4a; and the IC50 values of the gold(III) Schiff-base and bis(pyridyl)carboxamide complexes are shown in Table 4b. The cytotoxicity profiles of some selected gold(III) porphyrin complexes toward SUNE1 and its cisplatin-resistant variant CNE1 are also shown in FIG. 7.

For data set [4], the system named is Human Nasopharyngeal Carcinoma (SUNE1). The experiment in a line: MTT cytotoxicity, SUNE1. The data set is classed as cell-based. Particulars: for IC50: MTT, growth inhibition.
From the text: as §1

In data set [5] the test system is Human Hepatocellular Carcinoma (HepG2). The experiment in a line: MTT cytotoxicity, HepG2. In kind it is cell-based. Particulars: growth inhibition.
From the text: as §2, §3

Data set [6] can be described thus: Electrochemical measurements (cyclic voltammetry). The data set is classed as physicochemical. Particulars: for Couple I (first reduction couple) / Couple II (second reduction couple): cyclic voltammetry, 0.1 M nBu4NPF6, glassy carbon, vs Cp2Fe^+/0; for ΔE1o (E^0Y − E^0H), couple I / ΔE2^0 (E^0Y − E^0H), couple II: relative to Y=H (Complex 1a). How it is done:
Electrochemical measurements. Electrochemical measurements were performed at room temperature after purging with nitrogen using 0.1 M tetrabutylammonium hexafluorophosphate (TBAP)/acetonitrile as supporting electrolyte. The working electrode was a glassy carbon (Atomergic Chemetal V25, geometric area of 0.35 cm^2) electrode and the counter electrode was platinum gauze. A nonaqueous Ag/AgNO3 (0.1 M in acetonitrile) reference electrode was contained in a separate compartment connected to the test solution via fine sintered glass disks. The ferrocenium/ferrocene couple was used as the internal standard. The redox properties of the gold(III) porphyrin complexes in non-aqueous medium (CH2Cl2 with 0.1 M nBu4NPF6) have been studied by cyclic voltammetry with glassy carbon and platinum as the working and counter electrodes, respectively. […] The effect of para-substitution on the electrochemical potentials has been examined by Hammett correlation analysis.

Data set [7] deals with Human Oral Epidermoid Carcinoma (multi-drug resistance, KB-V-1). The experiment in a line: MTT cytotoxicity, KB-V-1. The data set is classed as cell-based. Particulars: for IC50: MTT, growth inhibition, multi-drug resistant.
From the text: as §2
The anti-cancer activities of the gold(III) porphyrin complexes were evaluated toward some established human cancer cell lines: promyelocytic leukemia (HL-60), hepatocellular carcinoma (HepG2), cervix epitheloid carcinoma (HeLa), epidermoid carcinoma (KB-3-1) and its multi-drug resistant variant (KB-V1), nasopharyngeal carcinoma (SUNE1) and its cisplatin-resistant variant (CNE1).

Data set [8] relates to Human Oral Epidermoid Carcinoma (KB-3-1). The experiment in a line: MTT cytotoxicity, KB-3-1. The data set is classed as cell-based. Particulars: for IC50: MTT, growth inhibition.
From the text: as §1

A further data set deals with HeLa cells. The experiment in a line: Flow cytometry annexin V/propidium iodide apoptosis assay. In kind it is cell-based, human. Particulars: after treatment (Complex 1a 6 and 15 h; straurosporine 15 h). From the text:
Flow cytometry: The gold(III) porphyrin-induced apoptosis of the HeLa cell line has been further examined by flow cytometry. During the early phase of apoptosis, cells lose the asymmetry of their membrane phospholipids, although the integrity of the cell membrane is maintained. A negatively charged phospholipid, named phosphatidylserine (PS), which is located in the inner part of the plasma membrane, becomes exposed to the cell surface. A phospholipid-binding protein, annexin V (green emissive upon binding), with high affinity binds preferentially to PS. Apoptotic cells therefore can be stained by annexin V before the dying cell changes its morphology and hydrolyzes its DNA. On the other hand, both DNA and the PS would be exposed for necrotic cells. In this case, propidium iodide (PI, red emissive upon binding), can be used to stain selectively the naked DNA. Therefore, both apoptotic and necrotic cells can be discriminated after adding these two staining reagents. For apoptotic cells, only annexin V would stain; for necrotic cells, both annexin V and PI would stain.
For comparison, a control cell culture experiment was performed in the absence of Complex 1a and straurosporine. […] Throughout the flow cytometric experiment, <1% of necrotic cells were observed.
On the technique in general: In flow cytometry, cells or beads pass a laser one at a time.

By IC50 is commonly meant the concentration at which inhibition is half-maximal. Consider `COc1ccc(-c2c3nc(c(-c4ccc(OC)cc4)c4ccc([n-]4)c(-c4ccc(OC)cc4)c4nc(c(-c5ccc(OC)cc5)c5ccc2[n-]5)C=C4)C=C3)cc1.[Au+3].[Cl-]` [Complex 1c], for which, in data set [1], the “IC50 ratio [cisplatin/gold (III) porphyrin complexes] CNE1” value is reported as 53.0 and the midpoint of inhibition, the IC50, lay at 0.77 µM. Also, in data set [2], the “IC50 ratio [cisplatin/gold (III) porphyrin complexes] HeLa” value was determined as 17.0 and 0.66 µM corresponded to half-maximal inhibition (IC50). The compound also had an IC50 in data set [3] of 0.88 µM. Moreover, in data set [4], the “IC50 ratio [cisplatin/gold (III) porphyrin complexes] SUNE1” value was determined as 18.5 and the IC50 was found to be 0.68 µM. The compound further returned an IC50 in [5] of 0.76 µM. Moreover, in data set [6], the “Couple I (first reduction couple)” value is on record as −1.02 V; the “Couple II (second reduction couple)” value is reported as −1.51 V; the “ΔE1o (E^0Y − E^0H), couple I” value is given as −0.02 V; the “ΔE2^0 (E^0Y − E^0H), couple II” value is −0.02 V.

With `Brc1ccc(-c2c3nc(c(-c4ccc(Br)cc4)c4ccc([n-]4)c(-c4ccc(Br)cc4)c4nc(c(-c5ccc(Br)cc5)c5ccc2[n-]5)C=C4)C=C3)cc1.[Au+3].[Cl-]` [Complex 1d], in [7], the “IC50 ratio [cisplatin/gold (III) porphyrin complexes] KB-V1” value stood at 8.96 and the IC50 is 0.64 µM. For the same compound, in data set [1], the “IC50 ratio [cisplatin/gold (III) porphyrin complexes] CNE1” value is listed as 41.6 and inhibition was half-maximal at 0.98 µM (IC50). In [2], the “IC50 ratio [cisplatin/gold (III) porphyrin complexes] HeLa” value is listed as 12.6 and it took 0.89 µM to reach half-maximal inhibition (IC50). The same compound returned an IC50 in data set [3] of 1.12 µM. In [8], the “IC50 ratio [cisplatin/gold (III) porphyrin complexes] KB-3-1” value was 10.23 and half-maximal inhibition (IC50) required 1.29 µM. In [4], the “IC50 ratio [cisplatin/gold (III) porphyrin complexes] SUNE1” value worked out at 17.0 and the IC50 was 0.74 µM. This compound also displayed an IC50 in data set [5] of 1.21 µM. Moreover, in data set [6], the “Couple I (first reduction couple)” value is −0.97 V; the “Couple II (second reduction couple)” value is −1.45 V; the “ΔE1o (E^0Y − E^0H), couple I” value is reported as “+0.03 V”; the “ΔE2^0 (E^0Y − E^0H), couple II” value is recorded as “+0.03 V”.

As to `Clc1ccc(-c2c3nc(c(-c4ccc(Cl)cc4)c4ccc([n-]4)c(-c4ccc(Cl)cc4)c4nc(c(-c5ccc(Cl)cc5)c5ccc2[n-]5)C=C4)C=C3)cc1.[Au+3].[Cl-]` [Complex 1e], in data set [7], the “IC50 ratio [cisplatin/gold (III) porphyrin complexes] KB-V1” value was determined as 20.4 and the IC50 amounted to 0.23 µM. Moreover, in data set [1], the “IC50 ratio [cisplatin/gold (III) porphyrin complexes] CNE1” value is 99.5 and 0.41 µM corresponded to half-maximal inhibition (IC50). Further, in data set [2], the “IC50 ratio [cisplatin/gold (III) porphyrin complexes] HeLa” value stood at 16.2 and the IC50 stood at 0.69 µM. The IC50 in [3] worked out at 0.87 µM. In [8], the “IC50 ratio [cisplatin/gold (III) porphyrin complexes] KB-3-1” value turned out to be 26.4 and the IC50 came to 0.5 µM. In data set [4], the “IC50 ratio [cisplatin/gold (III) porphyrin complexes] SUNE1” value is 37.1 and the IC50 came to 0.34 µM. Besides, the IC50 in data set [5] is 0.92 µM. Moreover, in [6], the “Couple I (first reduction couple)” value is given as −0.96 V; the “Couple II (second reduction couple)” value was −1.44 V; the “ΔE1o (E^0Y − E^0H), couple I” value is reported as “+0.44 V”; the “ΔE2^0 (E^0Y − E^0H), couple II” value was “+0.44 V”.

With `COc1cc(-c2c3nc(c(-c4cc(OC)c(OC)c(OC)c4)c4ccc([n-]4)c(-c4cc(OC)c(OC)c(OC)c4)c4nc(c(-c5cc(OC)c(OC)c(OC)c5)c5ccc2[n-]5)C=C4)C=C3)cc(OC)c1OC.[Au+3].[Cl-]` [Complex 1f], the “IC50 ratio [cisplatin/gold (III) porphyrin complexes] KB-V1” value in [7] worked out at 5.62. The IC50 in data set [7] turned out to be 0.71 µM; in data set [1] it was 0.73 µM; in data set [2], 0.68 µM; in data set [3] it was 0.74 µM; in data set [8] it was 0.87 µM; in [4] it was 0.68 µM. Besides, the IC50 in data set [5] was 1.83 µM. For the same compound, the “IC50 ratio [cisplatin/gold (III) porphyrin complexes] CNE1” value in [1] is reported as 55.9. Moreover, the “IC50 ratio [cisplatin/gold (III) porphyrin complexes] HeLa” value in data set [2] is on record as 16.5. For the same compound, the “IC50 ratio [cisplatin/gold (III) porphyrin complexes] KB-3-1” value in data set [8] turned out to be 15.1. Further, in [4], the “IC50 ratio [cisplatin/gold (III) porphyrin complexes] SUNE1” value is given as 18.5.

For the compound `N.N.[Cl][Pt][Cl]` [Pt(NH3)2Cl2, reference compound], the IC50 in [7] was determined as 10.2 µM; in data set [1] it was 40.8 µM; in data set [2], 11.2 µM; in data set [3], 16.8 µM; in data set [8], 13.2 µM; in [4], 12.6 µM. In data set [5], this compound gave an IC50 of 13.5 µM.

Consider `CCCC[N+](CCCC)(CCCC)CCCC.[Au+3].[Cl-].[Cl-].[Cl-].[Cl-]` [nBu4N[AuCl4], Tetrabutylammonium tetrachloroaurate, reference compound], for which the IC50 in [1] came to 11.5 µM; in [2] it was 8.41 µM; in data set [3], 9.71 µM; in data set [8], 10.3 µM; in data set [4] it was 9.94 µM; in [5], 11.2 µM.

With `CN[C@@H]1C[C@H]2O[C@@](C)([C@@H]1OC)n1c3ccccc3c3c4c(c5c6ccccc6n2c5c31)C(=O)NC4` [straurosporine, reference compound], the “annexin V emission” value in the data set on HeLa cells was “the magnitude of the annexin V emission was enhanced”.
